In paper PMC6979384, “Characterization of the plant homeodomain (PHD) reader family for their histone tail interactions” (Epigenetics & Chromatin, 2020):

Tests used:
Assay in all cases: Histone peptide microarray
Assay type in all cases: binding, human
Conditions in all cases: sheet "Array Heatmap"
[1] = tested on: KDM5B (3)
In short: (§1)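 Mean ± SD of 4 replicate array intensities; GST-PHD finger at 0.5 μM against 293 PTM-bearing histone peptides.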

[2] = tested on: AIRE (PP)
In short: as §1

[3] = tested on: TAF3
In short: as §1

[4] = tested on: KDM5A (1)
In short: as §1

[5] = tested on: PHF21A
In short: as §1

[6] = tested on: MLL5
In short: as §1

[7] = tested on: CHD4 (PPCC)
In short: as §1

[8] = tested on: TRIM66 (PB)
In short: as §1

[9] = tested on: ING4
In short: as §1

[10] = tested on: KDM7A
In short: as §1

[11] = tested on: RAG2
In short: as §1

[12] = tested on: CHD5 (PPCC)
In short: as §1

[13] = tested on: MORC3 (CW)
In short: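 Purified PHD finger domains fused to GST are screened against 293 synthetic histone peptides bearing one or several post-translational modifications. The protein is used at 0.5 μM, and the signal from four replicate arrays is averaged, with standard deviation given.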

[14] = tested on: CHD5 (PCC)
In short: as §1

[15] = tested on: BPTF (PB)
In short: as §1

[16] = tested on: PHF23
In short: as §1

[17] = tested on: DPF2 (PPC2W2)
In short: as §1

[18] = tested on: KDM5A (3)
In short: as §1

[19] = tested on: PHF8
In short: as §1

[20] = tested on: KDM4C (TTP)
In short: as §1

[21] = tested on: DIDO1
In short: as §1

[22] = tested on: ING5
In short: as §1

[23] = tested on: ING2
In short: as §1

[24] = tested on: PHF13
In short: as §1

[25] = tested on: PHRF1 (RP)
In short: as §1

[26] = tested on: KDM5B (1)
In short: as §1

[27] = tested on: SP140L
In short: as §1

[28] = tested on: ING3
In short: as §1

[29] = tested on: ING1
In short: as §1

[30] = tested on: PHF2
In short: as §1

[31] = tested on: BAZ2B
In short: as §1

H3K23ac (1-32): H3 1-32 was tested, and the “Array Heatmap value (peptide array signal)” value (shortened to “Array Heatmap value”) ([1]; KDM5B (3), each array performed twice, total n = 4) was 0.4657, the “Array Heatmap value” value ([2]; AIRE (PP), each array performed twice, total n = 4) was 0.5525 and the “Array Heatmap value” value ([3]; TAF3, each array performed twice, total n = 4) was 0.2562. For the same substance, the “Array Heatmap value” value ([4]; KDM5A (1), each array performed twice, total n = 4) was 0.4665, the “Array Heatmap value” value ([5]; PHF21A, each array performed twice, total n = 4) was 0.4363 and the “Array Heatmap value” value ([6]; MLL5, each array performed twice, total n = 4) was 0.5116. For the same substance, the “Array Heatmap value” value ([7]; CHD4 (PPCC), each array performed twice, total n = 4) was 0.5377, the “Array Heatmap value” value ([8]; TRIM66 (PB), each array performed twice, total n = 4) was 0.6504 and the “Array Heatmap value” value ([9]; ING4, each array performed twice, total n = 4) was 0.4368. The “Array Heatmap value” value ([10]; KDM7A, each array performed twice, total n = 4) was 0.3346, the “Array Heatmap value” value ([11]; RAG2, each array performed twice, total n = 4) was 0.2372 and the “Array Heatmap value” value ([12]; CHD5 (PPCC), each array performed twice, total n = 4) was 0.5376. For the same substance, the “Array Heatmap value” value ([13]; MORC3 (CW), each array performed twice, total n = 4) was 0.4909, the “Array Heatmap value” value ([14]; CHD5 (PCC), each array performed twice, total n = 4) was 0.6958 and the “Array Heatmap value” value ([15]; BPTF (PB), each array performed twice, total n = 4) was 0.3332. For the same substance, the “Array Heatmap value” value ([16]; PHF23, each array performed twice, total n = 4) was 0.526, the “Array Heatmap value” value ([17]; DPF2 (PPC2W2), each array performed twice, total n = 4) was 0.7046 and the “Array Heatmap value” value ([18]; KDM5A (3), each array performed twice, total n = 4) was 0.4863. For the same substance, the “Array Heatmap value” value ([19]; PHF8, each array performed twice, total n = 4) was 0.3314, the “Array Heatmap value” value ([20]; KDM4C (TTP), each array performed twice, total n = 4) was 0.4876 and the “Array Heatmap value” value ([21]; DIDO1, each array performed twice, total n = 4) was 0.6401. The “Array Heatmap value” value ([22]; ING5, each array performed twice, total n = 4) was 0.3453, the “Array Heatmap value” value ([23]; ING2, each array performed twice, total n = 4) was 0.596 and the “Array Heatmap value” value ([24]; PHF13, each array performed twice, total n = 4) was 0.5924. For the same substance, the “Array Heatmap value” value ([25]; PHRF1 (RP), each array performed twice, total n = 4) was 0.68, the “Array Heatmap value” value ([26]; KDM5B (1), each array performed twice, total n = 4) was 0.696 and the “Array Heatmap value” value ([27]; SP140L, each array performed twice, total n = 4) was 0.3597. The “Array Heatmap value” value ([28]; ING3, each array performed twice, total n = 4) was 0.4476, the “Array Heatmap value” value ([29]; ING1, each array performed twice, total n = 4) was 0.5079 and the “Array Heatmap value” value ([30]; PHF2, each array performed twice, total n = 4) was 0.4393. The “Array Heatmap value” value ([31]; BAZ2B, each array performed twice, total n = 4) was 0.4309.
H3K23me1 15-34: H3 15-34 was tested, and the “Array Heatmap signal, KDM5B (3)” value ([1]; GST-tagged KDM5B (3), arrays performed twice, total replicate number n = 4) was 0.4273, the “Array Heatmap signal, AIRE (PP)” value ([2]; GST-tagged AIRE (PP), arrays performed twice, total replicate number n = 4) was 0.4449 and the “Array Heatmap signal, TAF3” value ([3]; GST-tagged TAF3, arrays performed twice, total replicate number n = 4) was 0.2405. The “Array Heatmap signal, KDM5A (1)” value ([4]; GST-tagged KDM5A (1), arrays performed twice, total replicate number n = 4) was 0.4342, the “Array Heatmap signal, PHF21A” value ([5]; GST-tagged PHF21A, arrays performed twice, total replicate number n = 4) was 0.4373 and the “Array Heatmap signal, MLL5” value ([6]; GST-tagged MLL5, arrays performed twice, total replicate number n = 4) was 0.5166. For the same substance, the “Array Heatmap signal, CHD4 (PPCC)” value ([7]; GST-tagged CHD4 (PPCC), arrays performed twice, total replicate number n = 4) was 0.5163, the “Array Heatmap signal, TRIM66 (PB)” value ([8]; GST-tagged TRIM66 (PB), arrays performed twice, total replicate number n = 4) was 0.5248 and the “Array Heatmap signal, ING4” value ([9]; GST-tagged ING4, arrays performed twice, total replicate number n = 4) was 0.3978. The “Array Heatmap signal, KDM7A” value ([10]; GST-tagged KDM7A, arrays performed twice, total replicate number n = 4) was 0.3872, the “Array Heatmap signal, RAG2” value ([11]; GST-tagged RAG2, arrays performed twice, total replicate number n = 4) was 0.2067 and the “Array Heatmap signal, CHD5 (PPCC)” value ([12]; GST-tagged CHD5 (PPCC), arrays performed twice, total replicate number n = 4) was 0.4785. The “Array Heatmap signal, MORC3 (CW)” value ([13]; GST-tagged MORC3 (CW), arrays performed twice, total replicate number n = 4) was 0.2751, the “Array Heatmap signal, CHD5 (PCC)” value ([14]; GST-tagged CHD5 (PCC), arrays performed twice, total replicate number n = 4) was 0.7691 and the “Array Heatmap signal, BPTF (PB)” value ([15]; GST-tagged BPTF (PB), arrays performed twice, total replicate number n = 4) was 0.3041. The “Array Heatmap signal, PHF23” value ([16]; GST-tagged PHF23, arrays performed twice, total replicate number n = 4) was 0.4553, the “Array Heatmap signal, DPF2 (PPC2W2)” value ([17]; GST-tagged DPF2 (PPC2W2), arrays performed twice, total replicate number n = 4) was 0.6371 and the “Array Heatmap signal, KDM5A (3)” value ([18]; GST-tagged KDM5A (3), arrays performed twice, total replicate number n = 4) was 0.3565. The “Array Heatmap signal, PHF8” value ([19]; GST-tagged PHF8, arrays performed twice, total replicate number n = 4) was 0.3239, the “Array Heatmap signal, KDM4C (TTP)” value ([20]; GST-tagged KDM4C (TTP), arrays performed twice, total replicate number n = 4) was 0.4583 and the “Array Heatmap signal, DIDO1” value ([21]; GST-tagged DIDO1, arrays performed twice, total replicate number n = 4) was 0.5926. The “Array Heatmap signal, ING5” value ([22]; GST-tagged ING5, arrays performed twice, total replicate number n = 4) was 0.3097, the “Array Heatmap signal, ING2” value ([23]; GST-tagged ING2, arrays performed twice, total replicate number n = 4) was 0.5717 and the “Array Heatmap signal, PHF13” value ([24]; GST-tagged PHF13, arrays performed twice, total replicate number n = 4) was 0.5337. The “Array Heatmap signal, PHRF1 (RP)” value ([25]; GST-tagged PHRF1 (RP), arrays performed twice, total replicate number n = 4) was 0.3534, the “Array Heatmap signal, KDM5B (1)” value ([26]; GST-tagged KDM5B (1), arrays performed twice, total replicate number n = 4) was 0.6704 and the “Array Heatmap signal, SP140L” value ([27]; GST-tagged SP140L, arrays performed twice, total replicate number n = 4) was 0.3205. For the same substance, the “Array Heatmap signal, ING3” value ([28]; GST-tagged ING3, arrays performed twice, total replicate number n = 4) was 0.3997, the “Array Heatmap signal, ING1” value ([29]; GST-tagged ING1, arrays performed twice, total replicate number n = 4) was 0.468 and the “Array Heatmap signal, PHF2” value ([30]; GST-tagged PHF2, arrays performed twice, total replicate number n = 4) was 0.3956. The “Array Heatmap signal, BAZ2B” value ([31]; GST-tagged BAZ2B, arrays performed twice, total replicate number n = 4) was 0.4158.
